This is an account of results in paper PMC11891828, “Olfactory Receptor Responses to Pure Odorants in Drosophila melanogaster” (The European Journal of Neuroscience, 2025).

Common to all, as to assay: in vivo GCaMP6m calcium imaging of antennal neurons, GC-purified odorant
For test [1], the target named is T1, Or92a (Drosophila melanogaster, UniProt Q9VDM1).
T1 construct: native receptor in situ in antennal olfactory sensory neurons of living flies; Or92a-Gal4 drives UAS-GCaMP6m reporter; with Odorant receptor coreceptor
T1 sequence (Q9VDM1 1-408): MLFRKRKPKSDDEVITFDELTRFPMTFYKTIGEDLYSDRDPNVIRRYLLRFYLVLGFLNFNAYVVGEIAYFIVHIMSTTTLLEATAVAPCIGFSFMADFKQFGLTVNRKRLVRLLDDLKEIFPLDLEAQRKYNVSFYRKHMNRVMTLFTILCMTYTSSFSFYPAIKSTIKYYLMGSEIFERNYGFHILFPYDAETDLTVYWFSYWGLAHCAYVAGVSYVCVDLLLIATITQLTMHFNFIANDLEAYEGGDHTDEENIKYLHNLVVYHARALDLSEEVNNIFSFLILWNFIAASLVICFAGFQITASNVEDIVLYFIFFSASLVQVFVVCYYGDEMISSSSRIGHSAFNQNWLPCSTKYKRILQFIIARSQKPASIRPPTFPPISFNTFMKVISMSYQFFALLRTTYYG
T1 sequence (Q9VNB5 1-486 partner): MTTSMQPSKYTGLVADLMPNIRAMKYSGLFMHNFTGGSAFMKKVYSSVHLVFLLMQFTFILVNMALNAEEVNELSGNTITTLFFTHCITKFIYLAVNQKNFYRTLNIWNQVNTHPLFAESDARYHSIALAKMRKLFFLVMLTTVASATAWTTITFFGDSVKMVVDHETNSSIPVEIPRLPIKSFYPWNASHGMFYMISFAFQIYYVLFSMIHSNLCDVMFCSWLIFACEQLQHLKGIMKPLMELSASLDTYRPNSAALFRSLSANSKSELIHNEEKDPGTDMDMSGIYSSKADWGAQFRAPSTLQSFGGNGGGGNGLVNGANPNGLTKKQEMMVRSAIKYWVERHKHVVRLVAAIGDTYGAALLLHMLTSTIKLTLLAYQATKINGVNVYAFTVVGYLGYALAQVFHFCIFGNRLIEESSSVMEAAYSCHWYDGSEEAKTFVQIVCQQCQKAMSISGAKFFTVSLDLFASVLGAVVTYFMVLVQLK
Conditions: activation, biphasic; polar GC column; n = 4.

Test [2] has as its target T2, Or10a (Drosophila melanogaster, UniProt Q9VYZ1).
T2 construct: native receptor in situ in antennal olfactory sensory neurons of living flies; Or10a-Gal4 drives UAS-GCaMP6m reporter; with Odorant receptor coreceptor
T2 sequence (Q9VYZ1 1-406): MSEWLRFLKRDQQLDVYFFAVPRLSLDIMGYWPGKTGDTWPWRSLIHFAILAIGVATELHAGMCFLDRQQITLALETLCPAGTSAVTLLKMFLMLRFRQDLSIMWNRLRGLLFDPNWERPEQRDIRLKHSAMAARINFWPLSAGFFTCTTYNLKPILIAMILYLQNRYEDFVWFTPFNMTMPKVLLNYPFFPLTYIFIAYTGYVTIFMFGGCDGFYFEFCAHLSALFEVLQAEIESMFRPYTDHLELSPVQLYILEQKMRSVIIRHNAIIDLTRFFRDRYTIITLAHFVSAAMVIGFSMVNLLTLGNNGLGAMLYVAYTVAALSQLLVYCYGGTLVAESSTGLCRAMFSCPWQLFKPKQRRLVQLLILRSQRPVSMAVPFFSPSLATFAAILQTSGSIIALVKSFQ
T2 sequence (Q9VNB5 1-486 partner): T1 sequence (Q9VNB5 1-486 partner)
To be noted: activation; headspace of mineral-oil dilutions 10^-6, 10^-4, 10^-2.

In test [3] the target is T3, Or56a (Drosophila melanogaster, UniProt Q9V8Y7).
T3 construct: native receptor in situ in antennal olfactory sensory neurons of living flies; Or56a-Gal4 drives UAS-GCaMP6m reporter; with Odorant receptor coreceptor
T3 sequence (Q9V8Y7 1-419): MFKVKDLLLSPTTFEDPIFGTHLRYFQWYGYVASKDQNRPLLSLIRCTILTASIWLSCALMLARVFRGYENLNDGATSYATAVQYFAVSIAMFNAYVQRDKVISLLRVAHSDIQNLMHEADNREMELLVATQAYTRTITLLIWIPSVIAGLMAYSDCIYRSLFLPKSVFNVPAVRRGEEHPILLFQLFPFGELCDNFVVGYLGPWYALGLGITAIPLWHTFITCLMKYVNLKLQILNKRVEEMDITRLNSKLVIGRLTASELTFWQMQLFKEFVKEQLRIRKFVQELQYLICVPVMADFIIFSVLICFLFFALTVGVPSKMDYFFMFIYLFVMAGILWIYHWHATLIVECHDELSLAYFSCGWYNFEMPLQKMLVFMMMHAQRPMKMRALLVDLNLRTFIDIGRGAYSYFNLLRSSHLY
T3 sequence (Q9VNB5 1-486 partner): T1 sequence (Q9VNB5 1-486 partner)
To be noted: activation; dose series extended to 10^-12 dilution.

Test [4] has as its target T4, Or47a (Drosophila melanogaster, UniProt P81921).
T4 construct: native receptor in situ in antennal olfactory sensory neurons of living flies; Or47a-Gal4 drives UAS-GCaMP6m reporter; with Odorant receptor coreceptor
T4 sequence (P81921 1-385): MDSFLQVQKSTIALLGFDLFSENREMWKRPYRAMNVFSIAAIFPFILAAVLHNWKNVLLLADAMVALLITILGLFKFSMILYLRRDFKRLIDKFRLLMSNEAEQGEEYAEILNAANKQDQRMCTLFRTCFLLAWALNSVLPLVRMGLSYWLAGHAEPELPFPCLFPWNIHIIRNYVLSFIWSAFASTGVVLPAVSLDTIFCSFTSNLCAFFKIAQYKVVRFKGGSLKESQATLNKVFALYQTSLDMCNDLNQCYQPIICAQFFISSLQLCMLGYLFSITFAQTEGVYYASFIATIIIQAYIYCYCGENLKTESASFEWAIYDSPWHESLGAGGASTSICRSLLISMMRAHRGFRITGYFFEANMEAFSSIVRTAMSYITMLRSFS
T4 sequence (Q9VNB5 1-486 partner): T1 sequence (Q9VNB5 1-486 partner)
Conditions: activation; headspace of mineral-oil dilutions.

Test [5] has as its target T1, Or92a. To be noted: activation, biphasic; polar GC column; n = 4. This is another data set of the same source.

A value given as a limit tells only on which side of the number the result lay.

For `C[C@@H](O)[C@@H](C)O` [RBDL, (2R,3R)-(−)-2,3-Butanediol], the calcium response in test [1] was ~ 15%. Consider `COC(=O)c1ccccc1O` [MSAM, methyl salicylate], for which, in test [2], the “in vivo GCaMP6m calcium imaging of antennal neurons, GC-purified odorant” value (“in vivo GCaMP6m calcium imaging” below) is “The best ligand was methyl salicylate”. As to `CC1CCCC2(C)CCCCC12O` (racemic) [2MNL, (±)-geosmin], the “in vivo GCaMP6m calcium imaging” value in test [3] was “We found strong responses to geosmin and none to any of the other substances”. Regarding `COC(=O)c1ccccc1` [MBZM, methyl benzoate], the “in vivo GCaMP6m calcium imaging” value in test [2] was “good ligands were methyl benzoate and ethyl benzoate”. For `C[C@H](O)[C@H](C)O` [SBDL, (2S,3S)-(+)-2,3-Butanediol], the calcium response in test [1] is more than 40%. Regarding `CCCCCOC(C)=O` [PACE, pentyl acetate], the “in vivo GCaMP6m calcium imaging” value in test [4] is listed as “We found strong responses to pentyl acetate (significant to very low concentrations”. Consider `CCOC(=O)c1ccccc1` [2EBM, ethyl benzoate], for which the “in vivo GCaMP6m calcium imaging” value in test [2] is “good ligands were methyl benzoate and ethyl benzoate”. With `C[C@H](O)[C@@H](C)O` [MBDL, meso-2,3-Butanediol], the “in vivo GCaMP6m calcium imaging” value in test [5] is on record as “the meso isomer, identical to 2R,3S) gave a weak response only”.
